# Source: patent US6951871B2, “Indole derivatives useful as histamine H3 antagonists” (Schering Corporation, priority 2002, dated 2005)
# Target: T1, H3 receptors (Cavia porcellus, UniProt Q9JI35)
# T1 construct: The source of the H3 receptors in this experiment was guinea pig brain; from tissue; host or cells: guinea pig brain membranes
# Assay: H3-Receptor Binding Assay
# Conditions: guinea pig brain membranes; 3 nM [3H]R-α-methyl histamine or 3 nM [3H]Nα-methyl histamine; 30° C., 30 min
# Procedure: Using the appropriate indolene starting materials in a similar procedure, the following compounds were prepared: [drawing 145] General Procedure for H3-Receptor Binding Assay
# The source of the H3 receptors in this experiment was guinea pig brain. The animals weighed 400-600 g. The brain tissue was homogenized with a solution of 50 mM Tris, pH 7.5. The final concentration of tissue in the homogenization buffer was 10% w/v. The homogenates were centrifuged at 1,000×g for 10 min. in order to remove clumps of tissue and debris. The resulting supernatants were then centrifuged at 50,000×g for 20 min. in order to sediment the membranes, which were next washed three times in homogenization buffer (50,000×g for 20 min. each). The membranes were frozen and stored at −70° C. until needed.
# All compounds to be tested were dissolved in DMSO and then diluted into the binding buffer (50 mM Tris, pH 7.5) such that the final concentration was 2 μg/ml with 0.1% DMSO. Membranes were then added (400 μg of protein) to the reaction tubes. The reaction was started by the addition of 3 nM [^3H]R-α-methyl histamine (8.8 Ci/mmol) or 3 nM [^3H]N^α-methyl histamine (80 Ci/mmol) and continued under incubation at 30° C. for 30 min. Bound ligand was separated from unbound ligand by filtration, and the amount of radioactive ligand bound to the membranes was quantitated by liquid scintillation spectrometry. […]
# T1 sequence (Q9JI35 whole entry): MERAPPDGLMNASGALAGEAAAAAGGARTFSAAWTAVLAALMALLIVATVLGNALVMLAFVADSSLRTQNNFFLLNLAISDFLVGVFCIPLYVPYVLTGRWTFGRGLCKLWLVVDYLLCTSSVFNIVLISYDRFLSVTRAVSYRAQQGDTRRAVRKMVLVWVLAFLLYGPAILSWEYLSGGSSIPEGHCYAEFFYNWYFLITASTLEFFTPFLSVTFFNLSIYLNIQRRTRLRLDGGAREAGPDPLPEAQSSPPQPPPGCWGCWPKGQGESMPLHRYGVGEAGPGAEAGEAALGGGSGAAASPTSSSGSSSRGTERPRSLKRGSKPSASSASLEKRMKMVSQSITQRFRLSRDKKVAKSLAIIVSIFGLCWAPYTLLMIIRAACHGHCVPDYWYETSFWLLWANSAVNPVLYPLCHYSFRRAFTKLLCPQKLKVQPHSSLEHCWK
compound,measurement,value
Nc1cc(CN2CCC(C(=O)N3CCC(c4c(-c5ccccn5)n(Cc5ccccn5)c5ccccc45)CC3)CC2)ccn1 [Example 5],Ki,1.5 nM
